In patent US20220306603A1, “TARGETING DNA REPAIR IN TUMOR CELLS VIA INHIBITION OF ERCC1-XPF” (The Governors of the University of Alberta, priority 2019, published 2022):
Entries after “also recorded” stand apart in the source; their conditions may differ.

Key:
[1] = Microsomal stability in vitro (human liver microsomes)
HCT116 cells = assay: Cellular repair of UV-induced cyclobutane pyrimidine dimers (immunofluorescence); type: cell-based, human
Method: Protocol of Mirzayans et al. was followed with minor modifications (30). Approximately 1×10^5 HCT116 cells were seeded on each coverslip and allowed to attach overnight. Medium was then removed and cells were treated for one hour with the desired compound. The medium was removed, and cells were exposed to 8 J/m^2 UV-C radiation (G15T8 254 nm lamp, Ushio America Inc, Cypress, Calif.) followed by adding fresh medium containing the compound. Plates were incubated at 37° C. for different periods of time up to 24 hours and fixed in 50:50 methanol/1× phosphate-buffered saline (PBS) solution, followed by replacing the methanol/PBS solution with 100% methanol and incubation in −20° C. After 20 minutes, methanol was removed, and cells were treated with PBS for 5 minutes in room temperature. After fixing, cells were permeabilized in 0.5% Triton/PBS and washed with PBS, denatured in 2 N HCl, and neutralized by twice washing with 0.1 M borate buffer pH 8.5. Cells on cover slips were washed once with PBS followed by blocking with 5% non-fat dry milk/PBS for 30 minutes. Mouse anti-thymine dimer monoclonal antibody (Cat. No. MC-062, Kamiya Biomedical Company, Seattle, Wash.) was applied to the cover slips for one hour in the dark and at room temperature. Cells were then washed with PBS containing 0.1% Tween-20 and incubated with rabbit anti-mouse IgG-Alexafluor antibody (Invitrogen, Carlsbad, Calif.) followed by two washes with PBS/(0.1%)Tween-20. Cells on coverslips were then washed with PBS, rinsed with water, and mounted on slides using DAPI glycerol mounting solution. Slides were kept at 4° C. before fluorescent microscopic evaluation and measurement of fluorescence intensity with MetaXpress Version: 6.2.1.704 software (Molecular Devices, Sunnyvale, Calif.).
To test for inhibition of nucleotide excision repair, we monitored the cellular removal of UVC-induced cyclobutane pyrimidine dimers (CPDs) in HCT116 cells over a 24-hour period using an immunochemical assay.

CYP3A4-M = CYP3A4-M (Homo sapiens, UniProt P08684); assay: CYP450 inhibition, CYP3A4-M
Sequence of CYP3A4-M (P08684 whole entry): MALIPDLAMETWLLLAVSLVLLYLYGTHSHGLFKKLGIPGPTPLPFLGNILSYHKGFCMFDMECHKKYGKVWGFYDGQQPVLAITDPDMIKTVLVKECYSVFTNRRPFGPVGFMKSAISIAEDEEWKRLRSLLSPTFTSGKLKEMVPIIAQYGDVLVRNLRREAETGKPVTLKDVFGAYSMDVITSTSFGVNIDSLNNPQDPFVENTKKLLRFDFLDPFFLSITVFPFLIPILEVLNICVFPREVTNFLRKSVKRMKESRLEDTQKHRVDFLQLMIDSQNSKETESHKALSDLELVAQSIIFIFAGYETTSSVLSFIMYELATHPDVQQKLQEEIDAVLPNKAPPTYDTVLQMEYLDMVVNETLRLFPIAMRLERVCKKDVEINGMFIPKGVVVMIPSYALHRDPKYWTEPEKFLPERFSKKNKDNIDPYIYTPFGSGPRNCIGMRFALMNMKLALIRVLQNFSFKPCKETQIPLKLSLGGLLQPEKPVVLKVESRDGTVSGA

CYP2D6 = CYP2D6 (Homo sapiens, UniProt P10635); assay: CYP450 inhibition, CYP2D6
Sequence of CYP2D6 (P10635 whole entry): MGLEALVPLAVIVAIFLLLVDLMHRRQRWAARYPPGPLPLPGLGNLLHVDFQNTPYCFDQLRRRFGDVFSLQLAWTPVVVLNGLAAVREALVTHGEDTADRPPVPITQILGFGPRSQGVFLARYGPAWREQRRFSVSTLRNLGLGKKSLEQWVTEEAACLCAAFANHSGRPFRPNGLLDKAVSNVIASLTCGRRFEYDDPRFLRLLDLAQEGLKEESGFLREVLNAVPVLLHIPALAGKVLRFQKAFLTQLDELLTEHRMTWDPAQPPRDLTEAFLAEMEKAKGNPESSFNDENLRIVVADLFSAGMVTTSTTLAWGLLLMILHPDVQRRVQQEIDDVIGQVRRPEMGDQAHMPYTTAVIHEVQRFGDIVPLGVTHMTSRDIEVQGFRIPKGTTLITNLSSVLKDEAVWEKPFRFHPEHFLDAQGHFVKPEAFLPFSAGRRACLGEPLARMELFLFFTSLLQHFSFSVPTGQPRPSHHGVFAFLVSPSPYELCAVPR

ERCC1-XPF = target: T1, ERCC1-XPF (Homo sapiens, UniProt Q92889); assay: Microplate fluorescence incision assay of ERCC1-XPF endonuclease activity; type: biochemical; conditions: for inhibition of ERCC1-XPF endonuclease activity (in words): compounds 10 μM each
T1 construct: His6; made in house; host or cells: E. coli BL21 (DE3)
T1 sequence (Q92889 1-916): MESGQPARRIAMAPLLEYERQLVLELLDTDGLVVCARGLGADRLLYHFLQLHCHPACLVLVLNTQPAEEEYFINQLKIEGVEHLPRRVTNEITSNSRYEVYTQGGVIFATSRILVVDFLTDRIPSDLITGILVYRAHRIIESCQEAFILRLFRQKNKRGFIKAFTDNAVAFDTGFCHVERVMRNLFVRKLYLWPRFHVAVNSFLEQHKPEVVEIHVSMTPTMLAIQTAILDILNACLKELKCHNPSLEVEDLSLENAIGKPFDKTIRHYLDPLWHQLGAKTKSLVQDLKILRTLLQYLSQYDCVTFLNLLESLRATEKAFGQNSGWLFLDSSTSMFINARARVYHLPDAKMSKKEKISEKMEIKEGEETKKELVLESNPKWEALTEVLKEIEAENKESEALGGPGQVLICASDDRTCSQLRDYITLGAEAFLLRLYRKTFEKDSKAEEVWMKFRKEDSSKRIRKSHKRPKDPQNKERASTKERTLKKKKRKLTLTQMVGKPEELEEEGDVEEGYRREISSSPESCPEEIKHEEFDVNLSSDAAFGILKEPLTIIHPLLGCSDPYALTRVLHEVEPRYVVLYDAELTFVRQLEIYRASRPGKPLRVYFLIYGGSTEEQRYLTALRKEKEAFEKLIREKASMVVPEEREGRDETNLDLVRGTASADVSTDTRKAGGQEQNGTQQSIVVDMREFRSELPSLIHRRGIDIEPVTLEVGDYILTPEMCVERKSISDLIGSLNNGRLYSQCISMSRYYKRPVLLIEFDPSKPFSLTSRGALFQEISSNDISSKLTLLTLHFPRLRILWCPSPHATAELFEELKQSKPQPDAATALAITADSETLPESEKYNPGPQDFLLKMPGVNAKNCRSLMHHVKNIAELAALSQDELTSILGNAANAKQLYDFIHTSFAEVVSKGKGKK
From the text: This assay has been previously described (29), and utilizes a stem-loop substrate (composed of a 10mer-duplex stem and a 20mer-oligodT single-strand loop), labelled on the 5′-terminus with 6-FAM and 3′ with the quencher dabcyl.
Human ERCC1-XPF wild-type protein was obtained as previously described (29). Basically, the recombinant protein was expressed from a bicistronic plasmid (provided by Dr. Richard Wood, University of Texas MD Anderson Cancer Center, Smithville, Tex.) in the E. coli BL21 (DE3) strain. Since both XPF and ERCC1 contained a polyhistidine (His-6) tag, the proteins extracted from E. coli were incubated with a ProBond Nickel-Chelating Resin (Thermo Fisher Scientific). Protein eluted from the Ni affinity column was subsequently loaded into a Hi-trap heparin column (GE Healthcare). Fractions recovered from the heparin column that contained ERCC1-XPF were dialyzed, concentrated and stored at −80° C. in 10 mM HEPES pH 7.4, 2.5 mM p-mercaptoethanol, 0.01% CHAPS, 0.25 mM EDTA, 50% glycerol and 25 mM NaCl.
A previously described protocol (2,29) was followed.

[2] = test system: five CYP450 tested enzymes; assay: ADME screening: CYP inhibition (five CYP450 enzymes); conditions: Table 8
[3] = test system: five CYP450 enzymes (CYP1A2, CYP2C9, CYP2C19, CYP2D6, CYP3A4-M); assay: as above; conditions: human
[4] = ADME screening: solubility; type: physicochemical; conditions: Table 8
ADME screening: LogD = conditions: Table 8
[5] = Hepatocyte stability in vitro; type: in vitro ADME; conditions: Table 8

Structure (SMILES): COc1ccc2nc3cc(Cl)ccc3c(Nc3ccc(O)c(CN4CCN(CCN(C)C)CC4)c3)c2c1 [Compound A4, 4-((6-Chloro-2-methoxyacridin-9-yl)amino)-2-((4-(2-(dimethylamino)ethyl)piperazin-1-yl)methyl) phenol]
- metabolism on exposure to human liver microsomes (in words) [1]: metabolism in the midrange
- Microsomal stability in vitro CLint (in words) ([1]; Table 8): Low
- inhibition of cellular removal of CPDs / thymidine dimers (in words) (HCT116 cells; 8 J/m^2 UV-C, up to 24 h post-irradiation): significantly different; also recorded: significant inhibition of removal of CPDs
- CPDs removed over 24 hours after UV exposure (HCT116 cells; 8 J/m^2 UV, control approximately 80%): approximately 60%
- inhibition of CYP3A4-M (in words) (CYP3A4-M): weak inhibitor
- inhibition of CYP2D6 (in words) (CYP2D6): weak inhibitor
- enzyme activity after pre-incubation of ERCC1-XPF with compound (in words) (ERCC1-XPF; 3 μM compound, 10% or 5% DMSO): time-dependent loss of enzyme activity
- inhibition of ERCC1-XPF endonuclease activity (in words) (ERCC1-XPF): marked capacity to inhibit; also recorded: potent inhibitors
- inhibition of ERCC1-XPF endonuclease activity (in words) (ERCC1-XPF; listed as Gen A-4): significantly better inhibitory properties
- CVP inhibition (5 enzyme) (rating) [2]: Good
- IC50 [3]: ≥ 1000 nM
- Solubility (in words) [4]: Poor
- LogD (rating) (ADME screening: LogD): Good
- logD (ADME screening: LogD): 2.86
- Hepatocyte stability in vitro CLint (in words) [5]: (medium
